Key:
Assay type in all cases: biochemical
Abl = biological target: T1, Abl (Homo sapiens, UniProt P00519); assay: AlphaScreen kinase assay, Abl; details: read-out: activity toward kinase Abl, IC50
T1 construct: P1121. pET-SPEC BI-PTP Abl G227-V515-X; His6 (N); made in house; host or cells: E. coli (PTP1B co-expressed)
T1 sequence (P00519 with tags, fused parts or gaps): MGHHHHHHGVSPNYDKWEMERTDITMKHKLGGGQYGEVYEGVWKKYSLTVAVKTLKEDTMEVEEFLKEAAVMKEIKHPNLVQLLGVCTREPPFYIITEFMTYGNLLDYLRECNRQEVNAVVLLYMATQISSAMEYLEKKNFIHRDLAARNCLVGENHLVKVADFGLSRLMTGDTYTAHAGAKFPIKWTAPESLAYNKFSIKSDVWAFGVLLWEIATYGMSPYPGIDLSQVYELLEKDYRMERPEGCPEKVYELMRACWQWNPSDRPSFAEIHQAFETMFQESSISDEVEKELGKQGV
Text: (§1) AlphaScreen assay was used to screen additional kinases. The assay is similarly dependent on the phosphorylation of a peptide substrate. In this assay, an antibody that recognizes phosphorylated substrate is bound to an acceptor bead. The peptide substrate is attached to biotin, which binds to a donor head that contains streptavidin. Thus phosphorylated substrate is bound by antibody and streptavidin, bringing the donor and acceptor heads into close proximity when kinase is not inhibited. The donor produces singlet oxygen which results in emission from the acceptor when they are in close proximity. Conversely, when kinase is inhibited, the donor and acceptor beads are not associated and the emission from the acceptor is reduced.
(§2) AlphaScreen assays were done using compounds dissolved in DMSO to a concentration of 20 mM. The compounds were diluted accordingly to the desired final concentrations in each sample well, using 1:3 serial dilution for a total of 8 concentration points.

B-Raf V600E = biological target: T2, B-Raf V600E (Homo sapiens, UniProt P15056, V600E); assay: AlphaScreen kinase assay, B-Raf V600E; details: read-out: IC50, activity toward kinase B-Raf V600E
T2 construct: P4254. pFastBacBD-CDC37 BRAF D437-K722-X, V600E; His6 with pFastBac HT leader (TEV site) (N); made in house; host or cells: Sf9 (baculovirus; chaperone CDC37 co-expressed)
T2 sequence (P15056 with tags, fused parts or gaps V600E): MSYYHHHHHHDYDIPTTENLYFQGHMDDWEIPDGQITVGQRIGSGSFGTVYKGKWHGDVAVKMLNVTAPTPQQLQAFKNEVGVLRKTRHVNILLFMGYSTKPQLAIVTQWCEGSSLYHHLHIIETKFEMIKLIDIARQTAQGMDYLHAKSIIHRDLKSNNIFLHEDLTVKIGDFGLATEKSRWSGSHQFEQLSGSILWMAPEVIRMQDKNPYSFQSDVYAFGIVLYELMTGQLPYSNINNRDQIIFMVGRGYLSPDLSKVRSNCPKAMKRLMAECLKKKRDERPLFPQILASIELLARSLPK

Btk = biological target: T3, Btk (Homo sapiens, UniProt Q06187); assay: Z'-Lyte FRET kinase assay (Invitrogen), Btk; details: read-out: IC50, activity toward kinase Btk
T3 construct: purchased Invitrogen (assay run by Invitrogen)

Jnk3 = biological target: T4, Jnk3 (Homo sapiens, UniProt P53779); assay: AlphaScreen kinase assay, Jnk3; details: read-out: IC50, activity toward kinase Jnk3
T4 construct: purchased Upstate Biotechnology
T4 sequence (P53779 whole entry): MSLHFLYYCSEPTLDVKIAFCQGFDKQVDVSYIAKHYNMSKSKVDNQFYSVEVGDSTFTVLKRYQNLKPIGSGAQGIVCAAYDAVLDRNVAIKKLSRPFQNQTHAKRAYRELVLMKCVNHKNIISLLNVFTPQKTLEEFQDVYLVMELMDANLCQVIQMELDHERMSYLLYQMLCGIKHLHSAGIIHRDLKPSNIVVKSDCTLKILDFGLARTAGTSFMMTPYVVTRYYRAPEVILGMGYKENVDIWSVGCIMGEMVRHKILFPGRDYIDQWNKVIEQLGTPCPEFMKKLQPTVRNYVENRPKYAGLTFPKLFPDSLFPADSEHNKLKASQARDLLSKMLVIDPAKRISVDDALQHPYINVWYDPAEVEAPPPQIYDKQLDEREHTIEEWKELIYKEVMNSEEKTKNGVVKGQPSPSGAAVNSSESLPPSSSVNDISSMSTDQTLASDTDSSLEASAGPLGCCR

Ret = biological target: T5, Ret (Homo sapiens, UniProt P07949); assay: AlphaScreen kinase assay, Ret; details: read-out: IC50, activity toward kinase Ret
T5 construct: P1378.pET-SF BI-PTP RET H661-R1012 HIS; made in house
T5 sequence (P07949 with tags, fused parts or gaps): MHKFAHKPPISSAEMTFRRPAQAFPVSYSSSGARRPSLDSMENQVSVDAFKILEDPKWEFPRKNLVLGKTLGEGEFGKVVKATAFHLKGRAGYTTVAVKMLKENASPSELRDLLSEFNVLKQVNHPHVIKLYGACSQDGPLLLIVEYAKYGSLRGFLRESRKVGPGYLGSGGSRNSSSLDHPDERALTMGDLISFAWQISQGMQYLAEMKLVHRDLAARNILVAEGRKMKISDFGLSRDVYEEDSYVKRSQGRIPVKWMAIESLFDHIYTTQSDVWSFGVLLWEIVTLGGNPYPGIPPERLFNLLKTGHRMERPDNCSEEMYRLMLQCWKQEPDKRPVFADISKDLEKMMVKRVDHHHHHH

Yes = biological target: T6, Yes (Homo sapiens, UniProt P07947); assay: Z'-Lyte FRET kinase assay (Invitrogen), Yes; details: read-out: IC50, activity toward kinase Yes
T6 construct: purchased Invitrogen (Carlsbad, Calif.), screening service
Procedure, shortened: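 Serially diluted compound (1% DMSO final) is mixed with kinase plus 2 μM peptide substrate in pH 7.5 HEPES buffer, then ATP is added to 10 μM. After 1 h at room temperature, site-specific protease is added for another hour, reactions are stopped and fluorescence ratio measured.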

Zap70 = biological target: T7, Zap70 (Homo sapiens, UniProt P43403); assay: AlphaScreen kinase assay, Zap70; details: read-out: IC50, activity toward kinase Zap70
T7 construct: P1868.pFastBac1 ZAP70 D327-G606 HIS, WT; His7 (HHHHHHH) (C); made in house
T7 sequence (P43403 with tags, fused parts or gaps): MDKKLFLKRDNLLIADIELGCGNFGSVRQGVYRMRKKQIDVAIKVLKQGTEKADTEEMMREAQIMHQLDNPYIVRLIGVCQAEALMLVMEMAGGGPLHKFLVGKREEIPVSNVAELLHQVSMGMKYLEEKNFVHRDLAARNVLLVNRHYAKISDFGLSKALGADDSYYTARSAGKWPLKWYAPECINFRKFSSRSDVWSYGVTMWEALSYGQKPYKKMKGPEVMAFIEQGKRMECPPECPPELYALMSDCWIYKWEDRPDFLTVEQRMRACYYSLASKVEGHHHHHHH
Procedure, shortened: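 Eight concentrations per compound (1:3 serial dilution of 20 mM DMSO stock) were tested. Read-out: AlphaScreen signal from phospho-antibody acceptor and streptavidin donor beads bound to biotinylated peptide substrate, reduced on kinase inhibition.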

B-Raf = biological target: T8, B-Raf (Homo sapiens, UniProt P15056); assay: AlphaScreen kinase assay, B-Raf; details: read-out: IC50, activity toward kinase B-Raf
T8 construct: purchased Upstate Biotechnology

c-Raf-1 = biological target: T9, c-Raf-1 (Homo sapiens, UniProt P04049); assay: AlphaScreen kinase assay, c-Raf-1; details: read-out: IC50, activity toward kinase c-Raf-1
T9 construct: purchased Upstate Biotechnology
T9 sequence (P04049 whole entry): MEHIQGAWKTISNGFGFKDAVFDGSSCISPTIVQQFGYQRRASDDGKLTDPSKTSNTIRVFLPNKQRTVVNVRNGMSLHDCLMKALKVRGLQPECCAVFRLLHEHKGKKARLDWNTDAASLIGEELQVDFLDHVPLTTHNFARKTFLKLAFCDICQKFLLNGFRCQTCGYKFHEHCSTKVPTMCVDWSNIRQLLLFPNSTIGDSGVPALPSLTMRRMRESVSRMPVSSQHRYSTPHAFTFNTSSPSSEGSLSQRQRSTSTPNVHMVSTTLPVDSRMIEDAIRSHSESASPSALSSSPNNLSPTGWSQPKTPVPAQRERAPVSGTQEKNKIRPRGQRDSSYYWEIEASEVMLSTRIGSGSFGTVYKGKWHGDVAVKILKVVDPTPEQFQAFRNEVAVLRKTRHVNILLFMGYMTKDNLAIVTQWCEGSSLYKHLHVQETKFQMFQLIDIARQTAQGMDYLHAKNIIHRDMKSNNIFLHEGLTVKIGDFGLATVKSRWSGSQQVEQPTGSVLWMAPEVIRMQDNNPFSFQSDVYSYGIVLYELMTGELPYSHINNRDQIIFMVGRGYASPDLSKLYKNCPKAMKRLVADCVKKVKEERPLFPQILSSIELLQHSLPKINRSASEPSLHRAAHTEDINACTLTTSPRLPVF

FGFR1 = biological target: T10, FGFR1 (Homo sapiens, UniProt P11362, C488A/C584S); assay: AlphaScreen kinase assay, FGFR1; details: read-out: IC50, activity toward kinase FGFR
T10 construct: P1351.pET N6 BI-PTP FGFR A458-E765-X C488A, C584S; made in house; host or cells: E. coli (PTP1B co-expressed)
T10 sequence (P11362 458-765 C488A/C584S): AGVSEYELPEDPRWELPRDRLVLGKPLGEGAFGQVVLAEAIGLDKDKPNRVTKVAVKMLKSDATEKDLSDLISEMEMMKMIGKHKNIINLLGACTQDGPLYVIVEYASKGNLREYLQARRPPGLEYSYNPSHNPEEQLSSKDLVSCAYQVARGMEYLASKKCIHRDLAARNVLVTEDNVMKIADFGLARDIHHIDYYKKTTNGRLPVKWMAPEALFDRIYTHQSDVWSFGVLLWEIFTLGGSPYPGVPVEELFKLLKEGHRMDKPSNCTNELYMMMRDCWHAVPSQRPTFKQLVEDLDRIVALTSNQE

Kdr = biological target: T11, Kdr (Homo sapiens, UniProt P35968); assay: Z'-Lyte FRET kinase assay (Invitrogen), Kdr; details: read-out: IC50, activity toward kinase Kdr
T11 construct: purchased Invitrogen (assay run by Invitrogen)
T11 sequence (P35968 20-1356): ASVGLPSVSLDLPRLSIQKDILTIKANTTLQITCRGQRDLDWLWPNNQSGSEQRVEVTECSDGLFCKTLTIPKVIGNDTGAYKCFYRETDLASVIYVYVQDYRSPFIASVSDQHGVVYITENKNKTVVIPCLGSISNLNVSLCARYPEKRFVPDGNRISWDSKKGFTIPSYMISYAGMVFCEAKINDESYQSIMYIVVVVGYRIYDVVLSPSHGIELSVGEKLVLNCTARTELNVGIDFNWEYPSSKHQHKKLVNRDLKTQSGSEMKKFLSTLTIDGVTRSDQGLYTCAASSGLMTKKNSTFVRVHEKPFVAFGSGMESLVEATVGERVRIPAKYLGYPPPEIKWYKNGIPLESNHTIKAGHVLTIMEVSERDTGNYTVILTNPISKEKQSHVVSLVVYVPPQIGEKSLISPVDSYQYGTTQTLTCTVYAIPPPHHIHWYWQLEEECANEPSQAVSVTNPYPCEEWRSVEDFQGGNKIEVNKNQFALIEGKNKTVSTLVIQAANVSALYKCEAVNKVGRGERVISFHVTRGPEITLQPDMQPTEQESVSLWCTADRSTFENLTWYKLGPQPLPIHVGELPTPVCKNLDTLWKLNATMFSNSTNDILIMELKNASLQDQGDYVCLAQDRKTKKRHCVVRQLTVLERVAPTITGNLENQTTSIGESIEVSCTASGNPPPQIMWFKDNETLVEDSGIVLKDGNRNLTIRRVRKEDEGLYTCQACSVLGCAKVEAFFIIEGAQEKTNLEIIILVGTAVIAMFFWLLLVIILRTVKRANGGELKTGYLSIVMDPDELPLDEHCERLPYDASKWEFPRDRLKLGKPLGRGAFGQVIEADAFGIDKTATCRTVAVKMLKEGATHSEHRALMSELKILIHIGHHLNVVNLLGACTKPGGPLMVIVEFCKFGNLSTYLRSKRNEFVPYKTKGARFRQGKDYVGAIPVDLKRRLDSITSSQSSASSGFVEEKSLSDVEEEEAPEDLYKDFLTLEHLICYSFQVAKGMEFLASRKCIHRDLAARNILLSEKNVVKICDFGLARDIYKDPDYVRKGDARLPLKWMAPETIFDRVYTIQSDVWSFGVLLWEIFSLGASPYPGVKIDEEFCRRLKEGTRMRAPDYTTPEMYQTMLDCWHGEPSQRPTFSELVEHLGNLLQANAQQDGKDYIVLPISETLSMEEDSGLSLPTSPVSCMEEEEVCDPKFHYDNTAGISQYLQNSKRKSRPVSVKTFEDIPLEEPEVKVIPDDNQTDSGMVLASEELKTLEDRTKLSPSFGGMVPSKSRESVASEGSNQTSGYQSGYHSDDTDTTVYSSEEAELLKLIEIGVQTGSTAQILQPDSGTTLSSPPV

Met = biological target: T12, Met (Homo sapiens, UniProt P08581); assay: AlphaScreen kinase assay, Met; details: read-out: IC50, activity toward kinase Met
T12 construct: P1818.pETN6 BI-PTP MET G1056-G1364-X WT; His6 (N); made in house; host or cells: E. coli (PTP1B co-expressed)
T12 sequence (P08581 with tags, fused parts or gaps): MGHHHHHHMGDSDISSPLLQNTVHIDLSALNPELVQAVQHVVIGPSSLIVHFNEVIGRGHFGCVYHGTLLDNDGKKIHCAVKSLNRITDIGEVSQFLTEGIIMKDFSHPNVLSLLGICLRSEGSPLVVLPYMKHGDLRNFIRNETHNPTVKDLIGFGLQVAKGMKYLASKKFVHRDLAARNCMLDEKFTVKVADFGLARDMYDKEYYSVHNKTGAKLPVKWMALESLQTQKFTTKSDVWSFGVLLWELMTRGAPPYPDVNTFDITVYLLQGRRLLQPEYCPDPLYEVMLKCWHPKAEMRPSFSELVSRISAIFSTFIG
Text: as §1, §2

Fak = biological target: T13, Fak (Homo sapiens, UniProt Q05397); assay: AlphaScreen kinase assay, Fak; details: read-out: IC50, activity toward kinase Fak
T13 construct: P1358.pFastBacHtb FAK S411-Q686-X; His6 with pFastBacHTb leader (TEV site) (N); made in house; host or cells: Sf9 (baculovirus)
T13 sequence (Q05397 411-686): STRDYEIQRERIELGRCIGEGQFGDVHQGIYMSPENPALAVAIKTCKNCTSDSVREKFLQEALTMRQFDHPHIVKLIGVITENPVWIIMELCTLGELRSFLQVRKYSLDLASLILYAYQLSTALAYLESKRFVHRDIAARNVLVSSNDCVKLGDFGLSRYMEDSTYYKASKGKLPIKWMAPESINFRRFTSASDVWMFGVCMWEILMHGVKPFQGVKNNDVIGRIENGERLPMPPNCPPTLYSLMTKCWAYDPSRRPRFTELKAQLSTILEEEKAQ

Fms = biological target: T14, Fms (Homo sapiens, UniProt P07333); assay: AlphaScreen kinase assay, Fms; details: read-out: IC50, activity toward kinase Fms
T14 construct: purchased Upstate Biotechnology
T14 sequence (P07333 20-972): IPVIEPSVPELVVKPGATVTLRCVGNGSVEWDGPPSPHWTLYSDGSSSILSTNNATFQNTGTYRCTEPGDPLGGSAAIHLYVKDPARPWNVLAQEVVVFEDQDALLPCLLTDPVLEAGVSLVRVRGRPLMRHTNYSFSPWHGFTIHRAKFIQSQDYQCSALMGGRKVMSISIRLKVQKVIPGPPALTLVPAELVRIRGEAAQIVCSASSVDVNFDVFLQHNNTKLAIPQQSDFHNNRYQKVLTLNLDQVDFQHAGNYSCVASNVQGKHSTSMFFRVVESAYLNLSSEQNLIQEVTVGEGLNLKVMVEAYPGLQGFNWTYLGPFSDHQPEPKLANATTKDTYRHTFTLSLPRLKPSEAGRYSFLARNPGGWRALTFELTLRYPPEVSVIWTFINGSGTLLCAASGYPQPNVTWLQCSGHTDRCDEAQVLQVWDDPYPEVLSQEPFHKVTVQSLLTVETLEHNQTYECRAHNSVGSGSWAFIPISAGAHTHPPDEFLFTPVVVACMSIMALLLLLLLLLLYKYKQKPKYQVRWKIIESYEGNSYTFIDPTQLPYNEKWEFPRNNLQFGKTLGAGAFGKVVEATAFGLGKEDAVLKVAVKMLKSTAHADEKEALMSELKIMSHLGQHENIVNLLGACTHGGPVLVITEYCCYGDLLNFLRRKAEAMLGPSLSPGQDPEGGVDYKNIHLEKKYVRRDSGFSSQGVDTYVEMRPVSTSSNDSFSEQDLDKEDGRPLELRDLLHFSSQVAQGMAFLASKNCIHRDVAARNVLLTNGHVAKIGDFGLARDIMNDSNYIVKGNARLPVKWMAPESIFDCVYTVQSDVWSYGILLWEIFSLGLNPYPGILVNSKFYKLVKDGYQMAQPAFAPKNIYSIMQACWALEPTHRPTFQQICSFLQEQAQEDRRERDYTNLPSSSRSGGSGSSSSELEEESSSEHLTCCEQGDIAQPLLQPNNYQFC

Kit = biological target: T15, Kit (Homo sapiens, UniProt P10721); assay: AlphaScreen kinase assay, Kit; details: read-out: IC50, activity toward kinase Kit
T15 construct: P1332.N6 BI PTP KIT M552-K948-X COD; His6 (N); made in house; host or cells: E. coli (PTP1B co-expressed)
T15 sequence (P10721 with tags, fused parts or gaps): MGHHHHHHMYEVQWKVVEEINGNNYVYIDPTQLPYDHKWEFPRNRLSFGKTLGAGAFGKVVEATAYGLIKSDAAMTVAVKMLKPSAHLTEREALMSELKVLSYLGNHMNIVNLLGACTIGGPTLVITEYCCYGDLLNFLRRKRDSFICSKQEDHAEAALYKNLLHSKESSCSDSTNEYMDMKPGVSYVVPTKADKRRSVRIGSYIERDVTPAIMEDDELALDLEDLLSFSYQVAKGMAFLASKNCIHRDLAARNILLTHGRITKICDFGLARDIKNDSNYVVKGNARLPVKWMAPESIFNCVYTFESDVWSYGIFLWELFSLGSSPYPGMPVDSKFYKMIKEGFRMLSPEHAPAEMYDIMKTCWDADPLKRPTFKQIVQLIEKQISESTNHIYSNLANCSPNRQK

Pyk2 = biological target: T16, Pyk2 (Homo sapiens, UniProt Q14289); assay: AlphaScreen kinase assay, Pyk2; details: read-out: IC50, activity toward kinase Pyk2
T16 construct: purchased Upstate Biotechnology

Src = biological target: T17, Src (Homo sapiens, UniProt P12931); assay: AlphaScreen kinase assay, Src; details: read-out: IC50, activity toward kinase Src
T17 construct: P1144. pET-N6 BI-PTP SRC V86-L536-X; made in house

Flt1 = biological target: T18, Flt1 (Homo sapiens, UniProt P17948); assay: AlphaScreen kinase assay, Flt1; details: read-out: IC50, activity toward kinase Flt1
T18 construct: P1826.pETN6 BI-PTP FLT1 M799-D1165-X WT; His6 (N); made in house; host or cells: E. coli (PTP1B co-expressed)
T18 sequence (P17948 with tags, fused parts or gaps): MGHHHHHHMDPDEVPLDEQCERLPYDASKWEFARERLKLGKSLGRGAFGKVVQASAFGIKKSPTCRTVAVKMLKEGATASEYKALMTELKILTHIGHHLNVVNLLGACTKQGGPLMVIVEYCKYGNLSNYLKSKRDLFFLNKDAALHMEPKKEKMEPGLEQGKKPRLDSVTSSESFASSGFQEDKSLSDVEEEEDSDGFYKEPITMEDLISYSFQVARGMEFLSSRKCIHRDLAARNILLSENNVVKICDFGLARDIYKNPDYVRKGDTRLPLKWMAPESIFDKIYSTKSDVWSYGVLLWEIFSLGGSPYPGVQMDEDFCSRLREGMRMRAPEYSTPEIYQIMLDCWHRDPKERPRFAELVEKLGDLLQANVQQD

MAP4K4 = MAP4K4 (Homo sapiens, UniProt O95819); assay: AlphaScreen kinase assay, MAP4K4; details: read-out: IC50, activity toward kinase MAP4K4
Jnk1 = biological target: T19, Jnk1 (Homo sapiens, UniProt P45983); assay: AlphaScreen kinase assay, Jnk1; details: read-out: IC50, activity toward kinase Jnk1
T19 construct: purchased Upstate Biotechnology

Row | Compound | IC50 (B-Raf V600E) | IC50 (Jnk3) | IC50 (Ret) | IC50 (FGFR1) | IC50 (Met) | IC50 (Kit) | other results
1 | CCOc1cccc(Cc2c[nH]c3ncc(-c4ccsc4)cc23)c1 [Compound P-0562] | – | ≤ 10 µM | – | ≤ 10 µM | – | ≤ 10 µM | IC50 (Abl): ≤ 10 µM; IC50 (Kdr): ≤ 10 µM; IC50 (Pyk2): ≤ 10 µM; IC50 (Src): ≤ 10 µM
2 | CCCS(=O)(=O)Nc1ccc(F)c(C(=O)c2c[nH]c3ncc(Br)cc23)c1F [Compound P-0773, propane-1-sulfonic acid [3-(5-bromo-1H-pyrrolo[2,3-b]pyridine-3-carbonyl)-2,4-difluoro-phenyl]-amide] | ≤ 10 µM | – | – | ≤ 10 µM | ≤ 10 µM | ≤ 10 µM | IC50 (B-Raf): ≤ 10 µM; IC50 (c-Raf-1): ≤ 10 µM; IC50 (Flt1): ≤ 10 µM; IC50 (Fms): ≤ 10 µM
3 | CC(=O)c1cccc(Nc2cnc3[nH]ccc3c2)c1 [Compound P-1008] | ≤ 10 µM | ≤ 10 µM | – | ≤ 10 µM | ≤ 10 µM | ≤ 10 µM | IC50 (Flt1): ≤ 10 µM; IC50 (Fms): ≤ 10 µM; IC50 (Jnk1): ≤ 10 µM
4 | CC(C)(C)c1ccc(Nc2cnc3[nH]ccc3c2)cc1 [Compound P-1023] | – | – | – | – | ≤ 10 µM | – | IC50 (Kdr): ≤ 10 µM
5 | COc1cc(Nc2cnc3[nH]ccc3c2)cc(OC)c1OC [Compound P-1092] | – | – | – | – | ≤ 10 µM | – | –
6 | COC(=O)COc1ccc(F)c(Cc2c[nH]c3ncc(-c4cccnc4)cc23)c1F [Compound P-1465, [2,4-Difluoro-3-(5-pyridin-3-yl-1H-pyrrolo[2,3-b]pyridin-3-ylmethyl)-phenoxy]-acetic acid methyl ester] | ≤ 10 µM | ≤ 10 µM | – | ≤ 10 µM | ≤ 10 µM | ≤ 10 µM | IC50 (Flt1): ≤ 10 µM; IC50 (Fms): ≤ 10 µM; IC50 (Jnk1): ≤ 10 µM

More lines, main results first:

Row | IC50 (B-Raf V600E) | IC50 (Jnk3) | IC50 (Ret) | IC50 (FGFR1) | IC50 (Met) | IC50 (Kit) | Compound | other results
7 | ≤ 10 µM | ≤ 10 µM | ≤ 10 µM | – | – | – | COc1ccc(F)c(C(=O)c2c[nH]c3ncc(-c4cccc(/C=C/C(=O)O)c4)cc23)c1 [Compound P-0047] | IC50 (Abl): ≤ 10 µM; IC50 (Btk): ≤ 10 µM; IC50 (Yes): ≤ 10 µM; IC50 (Zap70): ≤ 10 µM
8 | ≤ 10 µM | ≤ 10 µM | ≤ 10 µM | ≤ 10 µM | ≤ 10 µM | – | O=C(c1cccc(Cl)c1F)c1c[nH]c2ncc(-c3cccnc3)cc12 [Compound P-0165, (3-Chloro-2-fluoro-phenyl)-(5-pyridin-3-yl-1H-pyrrolo[2,3-b]pyridin-3-yl)-methanone] | IC50 (B-Raf): ≤ 10 µM; IC50 (c-Raf-1): ≤ 10 µM; IC50 (Kdr): ≤ 10 µM
9 | – | – | ≤ 10 µM | ≤ 10 µM | – | ≤ 10 µM | COc1cccc(Cc2c[nH]c3nccc(Br)c23)c1 [Compound P-0501] | IC50 (Abl): ≤ 10 µM; IC50 (Fak): ≤ 10 µM; IC50 (Fms): ≤ 10 µM; IC50 (Pyk2): ≤ 10 µM; IC50 (Src): ≤ 10 µM
10 | – | – | ≤ 10 µM | – | ≤ 10 µM | – | O=C(Nc1ccccc1)Nc1ccc(Cc2c[nH]c3ncccc23)cc1 [Compound P-0542] | IC50 (c-Raf-1): ≤ 10 µM
11 | – | – | ≤ 10 µM | – | ≤ 10 µM | – | O=C(NCc1ccccn1)NCc1c[nH]c2ncccc12 [Compound P-0761] | –
12 | – | – | – | – | – | ≤ 10 µM | Cc1cc(C(=O)c2c[nH]c3ncc(-c4cccnc4)cc23)n(C)n1 [Compound P-0800] | IC50 (Abl): ≤ 10 µM; IC50 (MAP4K4): ≤ 10 µM
13 | – | ≤ 10 µM | ≤ 10 µM | – | ≤ 10 µM | – | Oc1ncc(F)c(Cc2c[nH]c3ncc(-c4ccsc4)cc23)c1F [Compound P-0822] | –
14 | – | – | – | – | ≤ 10 µM | – | Cc1ccc(Nc2cnc3[nH]ccc3c2)cc1 [Compound P-1037] | –
15 | – | – | – | – | ≤ 10 µM | – | Cc1cccc(-c2c(CSCc3ccccc3)[nH]c3ncccc23)c1 [Compound P-1132] | –
